The record followed here is patent US12201634B2, “Methods of treating depression using orexin-2 receptor antagonists” (Janssen Pharmaceutica NV, priority 2016, dated 2025).

Data set [1] in a line: Plasma pharmacokinetics after single 20 mg oral dose of suspension or tablet formulation (Example 1). Format: in vivo, Human. The protocol: This example was performed to determine the plasma pharmacokinetic (PK) and bioavailability of a solid dose formulation of [5(4,6-dimethyl-pyrimidin-2-yl)-hexahydro-pyrrolo[3,4-c]pyrrol-2-yl]-(2-fluoro-2-[1,2,3]triazol-2-yl-phenyl)-methanone (Compound A) after single dose tablet administration relative to a suspension formulation. Also addressed are the effect of a semi-fasted condition on the rate and extent of bioavailability of the solid dose formulation and tolerability of the solid and oral suspension formulations.
During each treatment period, blood samples were collected for PK measurements. Specifically, venous blood samples of 3 mL each were collected for determination of Compound plasma concentrations. The following plasma Compound A PK parameters were estimated using the actual times of blood sampling: • Cmax peak plasma concentration. • tmax time to reach the peak plasma concentration. • AUClast area under the plasma concentration-time curve from 0 to t hours post study drug dosing, calculated by trapezoidal summation (time t is the time of the last quantifiable concentration Clast). • AUC∞ AUClast extrapolated to infinity, calculated as AUClast+Clast/λz. • λz elimination rate constant, determined by linear regression of the terminal points of the ln-linear plasma concentration-time curve. • t1/2 terminal half-life, defined as 0.693/λz. • CL/F total clearance of drug after extravascular administration, uncorrected for absolute bioavailability, calculated as Dose/AUC∞. • Vd/F apparent volume of distribution after extravascular administration, uncorrected for absolute bioavailability.
Samples were prepared for testing using the following protocol: • (i) Plasma samples at room temperature were homogenized. • (ii) The samples were centrifuged for 5 minutes at about 2500×g and 20° C. • (iii) The plasma sample (50.0 μL) was pipetted into a 1.2 mL round well collection plate. • (iv) Stock Dilution Solvent (50.0 μL) was added to the blanks and the internal standard working solution was added to all other tube. […]

Another data set deals with healthy subjects. Description: Daytime administration in healthy subjects (statement). The class given is in vivo, human.
The subject of data set [2] is subjects with a diagnosis of MDD. Kind of data set: HDRS17 / HAM-D6 depression ratings, diphenhydramine and placebo-controlled study (Example 2). Format: in vivo, human. From the text:
Men and women with a diagnosis of MDD between the ages of 18 and 64, inclusive, were enrolled.
(once daily) in the evening over 10 days for women of child bearing potential (WOCBP) or 4 weeks for males and women of non-child bearing potential (WONCBP). […] Males and WONCBP took 1 capsule every evening just before bedtime from Day 1 to Day 28. WOCBP took 1 capsule every evening just before bedtime from Day 1 to Day 10. There were 2 follow up visits occurring at 3 and 14 days.
For the evaluation of symptoms of depression, assessments were done at screening and during the study. Specifically, symptoms of depression were performed using the Mini International Neuropsychiatric Interview (MINI) 6.0 interview, or Hamilton rating scale for Depression-17 (HDRS17). Also, polysomnography (PSG) was performed to quantify sleep stages including latency to persistent sleep (LSP) and total sleep time (TST). Thereafter, symptoms of depression were taking on days 11 and 29 during treatment and days 3 and 14 following treatment. PSG was recorded overnight after the first and tenth dose administration of study medication.
A HDRS17 total score was calculated by summing the 17 item scores taken during the study. A HDRS17 total score ranges from 0 to 52, with higher scores indicating greater severity of depression. In order to correct for a possible effect of study medication on sleep, sleep-related items were removed from the HDRS17 to calculate a (sleep item)-adjusted HDRS. Accordingly, an adjusted HDRS17 total score was calculated by summing the item scores excluding the 3 insomnia questions (4-Insomnia Early, 5-Insomnia Middle and 6-Insomnia Late). A HDRS17 adjusted total score ranges from 0 to 46. A 6-item subscale from the HDRS17 (HAM-D6) was analyzed and provided information to core depressive symptoms and is sensitive to treatment response. The six items included depressed mood, guilt feelings, work and interests, psychomotor retardation, psychic anxiety, and general somatics (tiredness and pains).
The HAM-D6 score was calculated by summing the 6 items scores, and ranges from 0 to 22. Higher scores indicate greater severity of core symptoms.

Data set [3] deals with subjects diagnosed with MDD. Description: HDRS17 / HAM-D6 ratings, Group 2 adjunctive to antidepressant (Example 3). Format: in vivo, human. Here is the method:
Specifically, Compound A was administered to subjects diagnosed with MDD (i) as a monotherapy and (ii) in combination with a known anti-depressant and the symptoms of depression of the subjects evaluated using the HDRS17 and HAM-D6 scale
Each subject in Group 2 also took an amount of antidepressant selected from duloxetine, citalopram, paroxetine, or sertraline and as prescribed by their attending physician. For the evaluation of symptoms of depression for both groups, assessments were independently performed at screening and on Day 11, i.e., one day after the study, using HDRS17 and HAM-D6 as described in Example 2. In Tables 11-12, # denotes the Cohen effect size, * denotes P<0.05 (statistically significant), and ** denotes P<0.01.

[4] abbreviates: Group 2 (with antidepressant), Day 11.

As to “[5(4,6-dimethyl-pyrimidin-2-yl)-hexahydro-pyrrolo[3,4-c]pyrrol-2-yl]-(2-fluoro-2-[1,2,3]triazol-2-yl-phenyl)-methanone [Compound A]”, the “mean t1/2” value in data set [1] (20 mg oral suspension, fasted) is around 2 h. Moreover, the “mean t1/2” value in data set [1] (20 mg tablet, fasting condition) was around 5 h. Also, the “mean t1/2” value in data set [1] (20 mg tablet, semi-fasted) is around 2 h. Besides, the somnolence result in the data set with healthy subjects is reported as “induced somnolence”. The “antidepressant effect compared to placebo and diphenhydramine” value in data set [2] (20 mg q.d. in the evening) was “larger and clinically relevant”. Moreover, in data set [2] (Day 11), the “Mean HAM-D6, change from baseline” value is −3.8 and the “mean HDRS17 anxiety/somatization factor score, change from baseline” value is −1.6. Moreover, in data set [2] (Day 11, q.d. in the evening), the “Mean Adjusted HDRS17 (sleep items removed), change from baseline” value is recorded as −4.5 and the “Total HDRS17 mean score, change from baseline” value was −5.5. In data set [2] (after treatment discontinuation), the “antidepressant effect sustained after treatment discontinuation” value was “at least 14 days”. For the same substance, in data set [3] (setting [4]), the “Adjusted HDRS Effect Size Compound A vs Placebo (Cohen effect size)” value is −1.06; the “Adjusted HDRS mean score (SD), change from baseline” value is −5.5 (1.29); the “Anxiety-Somatization Factor Effect Size Compound A vs Placebo (Cohen effect size)” value is −0.76; the “Anxiety-Somatization Factor mean score (SD), change from baseline” value is −1.8 (0.50). In data set [3] (setting [4]), the “HAM-D6 Effect Size Compound A vs Placebo (Cohen effect size)” value is on record as −1.49; the “HAM-D6 mean score (SD), change from baseline” value is on record as −4.8 (1.50); the “HDRS17 Effect Size Compound A vs Placebo (Cohen effect size)” value was −0.37; the “HDRS17 mean score (SD), change from baseline” value is listed as −7.0 (3.37). The “antidepressant efficacy as adjunctive therapy” value in data set [3] (antidepressant drug-treated subjects with MDD) is reported as “has antidepressant efficacy”.
